Patent publication US20260297542A1, “HERBICIDE RESISTANT PLANTS” (SYNGENTA CROP PROTECTION AG, priority 2023, published 2026)
Substitutions are numbered along the chain they refer to.

Experiments:
Experiment in all cases: E. coli hemG growth inhibition by herbicide, AtPPO1 variant
Type in all cases: cell-based
Details in all cases: read-out: percentage growth inhibition
AtPPO1 V511L = biological target: T1, AtPPO1 V511L (Arabidopsis thaliana, UniProt P55826, V511L)
T1 construct: expressed in transfected cells; host or cells: E. coli BL21(DE3) hemG, pET24a plasmid
T1 sequence (P55826 35-537 V511L): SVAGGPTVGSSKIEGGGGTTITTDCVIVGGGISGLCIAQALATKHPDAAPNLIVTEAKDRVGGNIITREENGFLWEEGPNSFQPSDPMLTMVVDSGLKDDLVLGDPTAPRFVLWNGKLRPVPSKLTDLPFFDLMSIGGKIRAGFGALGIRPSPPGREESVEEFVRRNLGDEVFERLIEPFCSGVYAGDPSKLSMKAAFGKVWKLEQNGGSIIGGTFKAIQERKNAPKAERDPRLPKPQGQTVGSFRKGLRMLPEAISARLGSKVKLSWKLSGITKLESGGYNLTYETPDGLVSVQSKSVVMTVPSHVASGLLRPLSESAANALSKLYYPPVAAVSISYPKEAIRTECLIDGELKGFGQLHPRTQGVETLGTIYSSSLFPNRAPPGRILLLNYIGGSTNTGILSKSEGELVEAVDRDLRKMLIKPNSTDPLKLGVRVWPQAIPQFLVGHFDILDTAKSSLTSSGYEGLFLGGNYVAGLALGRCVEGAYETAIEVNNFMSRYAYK
Procedure, shortened: (§1)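 Read-out is OD600 at 24 h post inoculation, converted to percent growth inhibition relative to DMSO. The hemG-deleted BL21(DE3) host relied on the plasmid-borne AtPPO1 variant, induced with 0.1 mM IPTG, with 6.25 ppm herbicide 0 or E or 0.78 ppm herbicide B present at 37° C.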

AtPPO1 L424V = biological target: T2, AtPPO1 L424V (Arabidopsis thaliana, UniProt P55826, L424V)
T2 construct: expressed in transfected cells; host or cells: E. coli BL21(DE3) hemG (pET24a, T7 promoter)
T2 sequence (P55826 35-537 L424V): T1 sequence (P55826 35-537 V511L) with L390V, L477V
Procedure, shortened: as §1

AtPPO1 P413G = biological target: T3, AtPPO1 P413G (Arabidopsis thaliana, UniProt P55826, P413G)
T3 construct: expressed in transfected cells; host or cells: E. coli BL21(DE3) hemG (pET24a, T7 promoter)
T3 sequence (P55826 35-537 P413G): T1 sequence (P55826 35-537 V511L) with P379G, L477V
Procedure, shortened: as §1

AtPPO1 Y361F = biological target: T4, AtPPO1 Y361F (Arabidopsis thaliana, UniProt P55826, Y361F)
T4 construct: expressed in transfected cells; host or cells: E. coli BL21(DE3) hemG (pET24a, T7 promoter)
T4 sequence (P55826 35-537 Y361F): T1 sequence (P55826 35-537 V511L) with Y327F, L477V
Procedure, shortened: as §1

Structure (SMILES) | inhibition at 0.78 ppm (AtPPO1 V511L) | inhibition at 0.78 ppm (AtPPO1 L424V) | inhibition at 0.78 ppm (AtPPO1 P413G) | inhibition at 0.78 ppm (AtPPO1 Y361F) | inhibition at 6.25 ppm (AtPPO1 V511L) | inhibition at 6.25 ppm (AtPPO1 L424V) | inhibition at 6.25 ppm (AtPPO1 P413G) | inhibition at 6.25 ppm (AtPPO1 Y361F)
C#CCN1C(=O)C(F)(F)Oc2cc(F)c(-n3c(=O)n(C)c(=S)n(C)c3=O)cc21 [Herbicide B, trifludimoxazin] | 18% | 19% | 16% | 31% |  |  |  | 
CCOC(=O)[C@]1(C)CC(c2cc(-n3c(=O)n(C)c(=S)n(C)c3=O)c(F)cc2Cl)=NO1 [Herbicide D, ethyl (5S)-3-[2-chloro-5-(3,5-dimethyl-2,6-dioxo-4-thioxo-1,3,5-triazinan-1-yl)-4-fluoro-phenyl]-5-methyl-4H-isoxazole-5-carboxylate] |  |  |  |  | 18% | 33% | 32% | 37%
CC(C)N(C)S(=O)(=O)NC(=O)c1cc(-n2c(=O)cc(C(F)(F)F)n(C)c2=O)c(F)cc1Cl [Herbicide E, saflufenacil] |  |  |  |  | 46% | 66% | 59% | 50%
